For seven molecules, MIC results are on record in patent publication US9840467B2, “Arylhydrazides containing a 2-pyridone moiety as selective antibacterial agents” (ABAC THERAPEUTICS, S.L., priority 2014, dated 2017).

Converted amounts (≈) assume the structure as drawn. Read-outs that look alike come from different tables or passages of the source. Bounds are passed on as bounds.

The test system of assay [1] is A. baumannii. The assay is described as follows: MIC, CLSI microtiter dilution, A. baumannii. The following applies: Acinetobacter baumannii. The format is cell-based, Acinetobacter baumannii. As to the method: (§1) The products of the present invention were tested for their activity against A. baumannii as well as against the following bacteria: Staphylococcus aureus (S. aureus), Streptococcus pneumoniae (S. pneumoniae), Enterococcus faecium (E. faecium), Pseudomonas aeruginosa (P. aeruginosa), Klebsiella pneumoniae (K. pneumoniae.), Enterobacter aerogenes (E. aerogenes) and Escherichia coli (E. coli).
(§2) Minimal inhibitory concentrations (MICs) were determined using a standard microtiter dilution method, according to the Clinical and Laboratory Standards Institute (CLSI) procedures, in particular according to M07-A9: “Methods for Dilution Antimicrobial Susceptibility Tests for Bacteria That Grow Aerobically; Approved Standard—Ninth Edition”.
(§3) Briefly, compounds were dissolved with dimethyl sulfoxide (DMSO) at 12.8 mg/mL. Serial two-fold dilutions of compounds were performed in DMSO and 1 μl of each dilution were transferred into microtiter culture plates, followed by 100 μl of inoculated culture media to give a final microorganism concentration of 5×10^5 colony-forming units/mL. Plates were incubated at 37° C. for 24 hours and MICs determined as the lowest compound concentration that inhibited growth. Media used in determinations were Cation adjusted Mueller-Hinton Broth for all the microorganisms except for S. pneumoniae and E. faecium whose culture media were supplemented with 2.5% of lysed horse blood. Incubations were performed at air atmosphere except S. pneumoniae cultures that were incubated with 5% CO2 atmosphere.

For assay [2], the system named is S. aureus. Kind of assay: MIC, CLSI microtiter dilution, S. aureus. The format is cell-based, Staphylococcus aureus. The following applies: Staphylococcus aureus. As to the method: as §1, §2, §3
In assay [3] the test system is S. pneumoniae. Kind of assay: MIC, CLSI microtiter dilution, S. pneumoniae. The format is cell-based, Streptococcus pneumoniae. Particulars: Streptococcus pneumoniae. The procedure: as §1, §2, §3
The subject of assay [4] is E. faecium. Kind of assay: MIC, CLSI microtiter dilution, E. faecium. The format is cell-based, Enterococcus faecium. Particulars: Enterococcus faecium. As to the method: as §1, §2, §3
The test system of assay [5] is P. aeruginosa. Kind of assay: MIC, CLSI microtiter dilution, P. aeruginosa. The format is cell-based, Pseudomonas aeruginosa. Particulars: Pseudomonas aeruginosa. The procedure: as §1, §2, §3
Assay [6] concerns K. pneumoniae. Kind of assay: MIC, CLSI microtiter dilution, K. pneumoniae. The format is cell-based, Klebsiella pneumoniae. Particulars: Klebsiella pneumoniae. As to the method:
as §1, §2, §3

In assay [7] the test system is E. aerogenes. Kind of assay: MIC, CLSI microtiter dilution, E. aerogenes. The format is cell-based, Enterobacter aerogenes. The following applies: Klebsiella aerogenes. As to the method: as §1, §2, §3
Assay [8] deals with E. coli. The assay is described as follows: MIC, CLSI microtiter dilution, E. coli. The format is cell-based, Escherichia coli. Particulars: Escherichia coli. The procedure: as §1, §2, §3
[9] abbreviates: A. baumannii, 37° C., 24 hours, Cation adjusted Mueller-Hinton Broth, read-out: MIC.
Where [10] appears, read: S. aureus, 37° C., 24 hours, Cation adjusted Mueller-Hinton Broth, read-out: MIC.
Where [11] appears, read: S. pneumoniae, 37° C., 24 hours, 2.5% lysed horse blood, 5% CO2, read-out: MIC.
Where [12] appears, read: E. faecium, 37° C., 24 hours, 2.5% lysed horse blood, read-out: MIC.
[13] abbreviates: P. aeruginosa, 37° C., 24 hours, Cation adjusted Mueller-Hinton Broth, read-out: MIC.
The mark [14] stands for this setting: K. pneumoniae, 37° C., 24 hours, Cation adjusted Mueller-Hinton Broth, read-out: MIC.
Setting [15] is: E. aerogenes, 37° C., 24 hours, Cation adjusted Mueller-Hinton Broth, read-out: MIC.
The mark [16] stands for this setting: E. coli, 37° C., 24 hours, Cation adjusted Mueller-Hinton Broth, read-out: MIC.

Regarding `O=C(NNc1ccc(F)cc1)c1cccc(=O)n1C(F)F` [Ex. 4, 1-Difluoromethyl-6-oxo-1,6-dihydro-pyridine-2-carboxylic acid N′-(4-fluorophenyl)-hydrazide], the MIC in assay [1] (setting [9]) is 1 µg/mL (≈ 3.36 µM); in assay [2] (setting [10]), over 128 µg/mL; in assay [3] (setting [11]), over 128 µg/mL; in assay [4] (setting [12]) it was over 128 µg/mL; in assay [5] (setting [13]), over 128 µg/mL; in assay [6] (setting [14]) it was over 128 µg/mL. Besides, the minimum inhibitory concentration (MIC) in assay [7] (setting [15]) and in assay [8] (setting [16]) was over 128 µg/mL each time.
Take `O=C(NNc1ccc(F)cc1)c1cccc(=O)n1CC(F)(F)F` [Ex. 8, 6-Oxo-1-(2,2,2-trifluoroethyl)-1,6-dihydropyridine-2-carboxylic acid N′-(4-fluorophenyl)-hydrazide]: the MIC is 0.25 µg/mL (≈ 0.759 µM) in assay [1] (24 h); over 128 µg/mL in assay [2] (24 h); over 128 µg/mL in assay [3] (24 h); over 128 µg/mL in assay [4] (24 h); over 128 µg/mL in assay [5] (24 h); over 128 µg/mL in assay [6] (24 h). Moreover, the minimum inhibitory concentration (MIC) in assay [7] (24 h) and in assay [8] (24 h) was over 128 µg/mL in each case.
On to `C#CCn1c(C(=O)NNc2ccc(F)cc2)cccc1=O` [Ex. 7, 1-(Prop-2-yn-1-yl)-6-oxo-1,6-dihydropyridine-2-carboxylic acid N′-(4-fluorophenyl)-hydrazide], for which the minimal inhibitory concentration (MIC) in assay [1] (24 h) was 0.25 µg/mL (≈ 0.876 µM); in assay [2] (24 h) it was over 128 µg/mL; in assay [3] (24 h) it was over 128 µg/mL; in assay [4] (24 h) it was over 128 µg/mL; in assay [5] (24 h), over 128 µg/mL; in assay [6] (24 h) it was over 128 µg/mL. In addition, the MIC in assay [7] (24 h) and in assay [8] (24 h) was over 128 µg/mL throughout.
Take `COc1cc(C(=O)NNc2ccc(F)cc2)n(C)c(=O)c1` [Ex. 21, 4-Methoxy-1-methyl-6-oxo-1,6-dihydropyridine-2-carboxylic acid N′-(4-fluorophenyl)-hydrazide]: the MIC in assay [1] (setting [9]) is 0.25 µg/mL (≈ 0.858 µM); in assay [2] (setting [10]), over 128 µg/mL; in assay [3] (setting [11]), over 128 µg/mL; in assay [4] (setting [12]), over 128 µg/mL; in assay [5] (setting [13]), over 128 µg/mL; in assay [6] (setting [14]) it was over 128 µg/mL. Also, the MIC in assay [7] (setting [15]) and in assay [8] (setting [16]) was over 128 µg/mL throughout.
Take `Cc1ccc(NNC(=O)c2cccc(=O)n2C)cc1` [Ex. 11, 1-Methyl-6-oxo-1,6-dihydropyridine-2-carboxylic acid N′-(4-methylphenyl)-hydrazide]: the MIC in assay [1] (24 h) was 0.5 µg/mL (≈ 1.94 µM); in assay [2] (24 h), over 128 µg/mL; in assay [3] (24 h), over 128 µg/mL; in assay [4] (24 h), over 128 µg/mL; in assay [5] (24 h), over 128 µg/mL; in assay [6] (24 h), over 128 µg/mL. Moreover, the MIC in assay [7] (24 h) and in assay [8] (24 h) was over 128 µg/mL throughout.
Turning to `Cn1cccc(C(=O)NNc2ccc(F)cc2)c1=O` [Ex. 17, 1-Methyl-2-oxo-1,2-dihydropyridine-3-carboxylic acid N′-(4-fluorophenyl)-hydrazide], the MIC in assay [1] (24 h) was 0.5 µg/mL (≈ 1.91 µM); in assay [2] (24 h), over 128 µg/mL; in assay [3] (24 h) it was over 128 µg/mL; in assay [4] (24 h) it was over 128 µg/mL; in assay [5] (24 h) it was over 128 µg/mL; in assay [6] (24 h), over 128 µg/mL. The MIC in assay [7] (24 h) and in assay [8] (24 h) was over 128 µg/mL in each case.
On to `Cn1c(C(=O)NNc2ccc(Cl)cc2)cccc1=O` [Ex. 10, 1-Methyl-6-oxo-1,6-dihydropyridine-2-carboxylic acid N′-(4-chlorophenyl)-hydrazide], for which the MIC in assay [1] (24 h) was 0.25 µg/mL (≈ 0.9 µM); in assay [2] (24 h) it was over 128 µg/mL; in assay [3] (24 h) it was over 128 µg/mL; in assay [4] (24 h) it was over 128 µg/mL; in assay [5] (24 h) it was over 128 µg/mL; in assay [6] (24 h), over 128 µg/mL. The MIC in assay [7] (24 h) and in assay [8] (24 h) was over 128 µg/mL each time.

For orientation: MIC means the lowest concentration that inhibits growth of the organism.
